Measurements as given in patent US20220243211A1, “PEPTIDE NUCLEIC ACID COMPOSITIONS WITH MODIFIED HOOGSTEEN BINDING SEGMENTS AND METHODS OF USE THEREOF” (Yale University, priority 2019, published 2022).

Legend:
[1] = test system: human CFBE cells; assay: MQAE cAMP-stimulated chloride efflux assay; assay type: cell-based
Excerpt: FIG. 3 is a bar graph showing chloride efflux measured using fluorescent indicator dye N-[ethoxycarbonylmethyl]-6-methoxy-quinolinium bromide (MQAE), in untreated human CFBE cells and those treated with NPs, and those treated with blank particles. One way ANOVA with multiple comparisons was used to analyze chloride efflux in untreated CF cells, blank particle treated CF cells, PNA/DNA particle treated cells and normal human bronchial epithelial cells (16HBE14o-).
CFBE cells (CFBE41o-) and human bronchial epithelial cells (16HBE14o-) (Gruenert, et al., J Cyst Fibros 3 Suppl 2, 191-196 (2004)) were grown with EMEM (Corning) with 10% FBS, 20 mM L-glutamine, and Pen/Strep. Once grown to confluence, cells were trypsinized by first washing with PBS, then adding 0.25% trypsin for 5 minutes, and harvesting with culture media. Once grown to confluence, cells were trypsinized by first washing with 0.05% trypsin, then adding 0.25% trypsin for 5 minutes, and harvesting with RPMI medium with 10% FBS. Cells were frozen in 5% DMSO in culture medium as necessary. NPs were suspended in culture media by vigorous vortexing and water sonication, then added directly to cells at concentrations of 2 mg/mL×10^6 cells (corresponding to approximately 10^9 PNA/DNA molecules delivered to each cell assuming 100% efficiency).
Glass coverslips (22×50 mm) were sterilized by dipping in 70% EtOH and were subsequently placed in 60 mm cell culture dishes (3 per dish.) The plates were exposed to UV irradiation overnight. Cells (˜1×10^6) were seeded in the dish and the cells grew to confluence in MEM media containing 10% FBS, L-glutamine, and pen/strep. At least 12 hours before the experiment, the cells were fed with MEM media containing 5% FBS, L-glutamine, and pen/strep. The experiment was run as previously described (Shenoy, et al., Pediatric research 70, 447-452 (2011)). Briefly, cells were incubated with N-[ethoxycarbonylmethyl]-6-methoxy-quinolinium bromide (MQAE, Invitrogen) in DMSO (100 uL, 30 mM suspended in HEPES Cl solution) for 30 minutes at 37° C. […] MQAE was excited at 354±10 nm and the emitted fluorescence of at least 20 cells was measured at 460±10 nm every five seconds for two minutes. […] The rate of change in MQAE fluorescence (Δarbitrary fluorescence units/sec) was used to calculate Cl^− efflux.
To compare the activity of unmodified (classic) and γPNA treatments on gene editing in human CFBE cells, the cells were treated with either PLGA NPs containing no PNA/mismatched donor DNA (referred to as blank NP), PLGA NPs containing hCF-PNA/donor DNA, PBAE/PLGA/MPG NPs containing hCF-PNA/donor DNA and PBAE/PLGA/MPG NPs containing γhCF-PNA-h/donor DNA. After treatment of the cells, cAMP-stimulated chloride efflux was quantified using the MQAE assay (McNeer, et al., Nat Commun 6, 6952 (2015)). […]

[2] = test system: F508del CFTR gene in CFBE cells; assay: Allele-specific PCR for gene modification; assay type: cell-based, human; settings: CFBE cells treated with PNA/donor DNA NPs
Experimental: Genomic DNA was harvested from cells and purified using the Wizard Genomic DNA Purification kit (Promega, Madison Wis.). Equal amounts of genomic DNA from each sample were subjected to allele-specific PCR (ASPCR), with a gene-specific reverse primer, and an allele-specific forward primer. PCR was performed using a Eppendorf master cycler X50. PCR products were separated on a 1% agarose gel and visualized using a gel imager.
AS-PCR conditions are as follows. Platinum Taq polymerase (Invitrogen, Carlsbad Calif.) was used for PCR reactions: 5 uL betaine, 4.25 uL water, 2.5 uL 10× Platinum Taq PCR buffer, 1.25 uL 50 mM MgCl2, 0.5 uL dNTPs, 0.5 uL each primer at 10 uM, 0.5 uL Platinum Taq polymerase, and 10 uL of genomic DNA at 40 ng/uL. PCR cycler conditions for human CFTR were as follows: 95° C. 2 min, 94° C. 30 sec, 69° C. 1 min, 72° C. 1 min, 94° C. 30 sec, 68° C. 1 min, 72° C. 1 min, 94° C. 30 sec, 67° C. 1 min, 72° C. 1 min, 94° C. 30 sec, 66° C. 1 min, 72° C. 1 min, 94° C. 30 sec, 65° C. 1 min, 72° C. 1 min, [94° C. 30 sec, 65° C. 1 min, 72° C. 1 min]×35 cycles, 72° C. 2 min, hold at 4° C. 1.
Gene-specific reverse primer: (reverse complement starting from nt 80162): 5′ […]

[3] = Zeta potential and hydrodynamic diameter of formulated NPs by dynamic light scattering; assay type: physicochemical; settings: NPs containing PNA/donor DNA, PBS buffer, n = 3; for Z Av Diameter: dynamic light scattering
Experimental: Blank NPs containing no PNA and a mismatch donor DNA as a control were prepared as a control. The mismatched donor DNA was purposely added into blank NPs because addition of donor DNA helps to produce a similar surface charge on the control NPs as on the test NPs encapsulated with PNA/donor DNA combinations. […] All NP in the diameters were in the range of 200-350 nm, as measured by dynamic light scattering (Table 1), consistent with previous measurements (McNeer, et al., Nat Commun 6, 6952 (2015), Fields, et al., Adv Healthc Mater 4, 361-366 (2015), Fields, et al., J Control Release 164, 41-48 (2012)). PNA/DNA-loaded NPs were cationic (Fields, et al., Adv Healthc Mater 4, 361-366 (2015), Fields, et al., J Control Release 164, 41-48 (2012)) for PBAE/PLGA/MPG NPs (Table 1).

[4] = PBAE/PLGA/MPG NPs with PNA/donor DNA

Row | Substance | chloride efflux [1, 4] | chloride efflux compared to untreated cells or blank NPs [1, 4] [fold] | gene modification by allele-specific PCR [2] | Zeta Potential [3] [mV] | Z Av Diameter [3] [nm] | chloride efflux ([1]; PLGA NPs with PNA/donor DNA)
1 | H-KKK-TJTJJTTT-OOO-TTTCCTCTATGGGTAAG-KKK-NH2 [γhCF PNA-h] (TNTNNTTTTTTCCTCTATGGGTAAG; listed as DNA, chemistry not fully specified) [tail clamp PNA targeting human CFTR gene with MPγ monomers in Hoogsteen domain] | no different than non-CF affected HBE cells | 7 | had the desired gene modification | 13.3 | 293.2 | –
2 | H-KKK-TJTJJTTT-OOO-TTTCCTCTATGGGTAAG-KKK-NH2 [hCF PNA] (TNTNNTTTTTTCCTCTATGGGTAAG; listed as DNA, chemistry not fully specified) | further enhanced | – | had the desired gene modification | 14.2 | 291.7 | marked increase in chloride efflux
